Measured values from patent US20240336608A1, “IL4I1 INHIBITORS AND METHODS OF USE” (Merck Sharp & Dohme LLC, priority 2023, published 2024).

Each compound was assayed against T1, recombinant IL4I1 (Homo sapiens, UniProt Q96RQ9) (assay: IL4I1 Enzymatic Assay (Amplex Red/HRP coupled detection of H2O2, fluorescence)). Details: 1 nM recombinant IL4I1; four-hour pre-incubation with compound; 1 mM each Phe, Tyr, Trp; ten-point titration.
T1 construct: purchased R&D Systems 5684-AO-020
T1 sequence (Q96RQ9 22-567): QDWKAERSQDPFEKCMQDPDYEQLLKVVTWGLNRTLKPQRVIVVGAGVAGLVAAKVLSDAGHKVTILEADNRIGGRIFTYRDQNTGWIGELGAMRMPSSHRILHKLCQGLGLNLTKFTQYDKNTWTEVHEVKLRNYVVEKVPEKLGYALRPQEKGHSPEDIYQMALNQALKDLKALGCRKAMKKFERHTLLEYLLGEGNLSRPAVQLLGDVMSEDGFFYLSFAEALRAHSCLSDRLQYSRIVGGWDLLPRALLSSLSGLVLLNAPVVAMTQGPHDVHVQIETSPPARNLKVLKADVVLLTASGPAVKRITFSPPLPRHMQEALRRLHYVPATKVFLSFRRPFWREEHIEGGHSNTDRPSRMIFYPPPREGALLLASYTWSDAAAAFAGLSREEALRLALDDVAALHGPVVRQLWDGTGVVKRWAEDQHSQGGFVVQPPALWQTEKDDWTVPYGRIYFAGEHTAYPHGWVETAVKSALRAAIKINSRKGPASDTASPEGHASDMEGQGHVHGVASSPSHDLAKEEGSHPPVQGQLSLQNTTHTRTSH
Type: biochemical
Summary of the method: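 H2O2 output was coupled to resorufin fluorescence (ex 544/em 590) via 0.05 mM Amplex Red and 1 U/mL HRP. Substrate: Phe, Tyr, Trp at 1 mM each; enzyme 1 nM, 4 h compound pre-incubation, 120 min reaction, pH 7.0 Hepes. EC50 by nonlinear four-parameter regression, 1:3 ten-point titration.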
Work on Cc1ccc(-n2cc(C(=O)NCc3nnc(-c4ccc(F)c(F)c4)s3)nn2)c(C)n1 [Example 106, N-((5-(3,4-difluorophenyl)-1,3,4-thiadiazol-2-yl)methyl)-1-(2,6-dimethylpyridin-3-yl)-1H-1,2,3-triazole-4-carboxamide] yielded an EC50 of 695 nM.
In the case of CC(n1cc(C(=O)NCc2nnc(-c3ccccc3)s2)nn1)C(F)(F)F (stereo not drawn) [Example 203, N-((5-phenyl-1,3,4-thiadiazol-2-yl)methyl)-1-(1,1,1-trifluoropropan-2-yl)-1H-1,2,3-triazole-4-carboxamide], the EC50 is reported as 31 nM.
With O=C(NCc1nnc(-c2ccccc2)s1)c1cn([C@H]2C[C@H](O)C2)nn1 [Example 281] the EC50 was 11 nM.
O=C(NCc1nnc(-c2ccccc2)s1)c1cn([C@H]2CCOC[C@@H]2O)nn1 [Example 184, 1-((3R,4S)-3-hydroxytetrahydro-2H-pyran-4-yl)-N-((5-phenyl-1,3,4-thiadiazol-2-yl)methyl)-1H-1,2,3-triazole-4-carboxamide] was tested, and the EC50 was 77 nM.
Compound CCC(C)Cn1cc(C(=O)NCc2nnc(-c3ccccc3)s2)nn1 (stereo not drawn) [Example 89, 1-(2-methylbutyl)-N-((5-phenyl-1,3,4-thiadiazol-2-yl)methyl)-1H-1,2,3-triazole-4-carboxamide] has an EC50 of 37 nM.
With C[C@@H](O)Cn1cc(C(=O)NCc2nnc(-c3ccccc3)s2)nn1 [Example 180, (R)-1-(2-hydroxypropyl)-N-((5-phenyl-1,3,4-thiadiazol-2-yl)methyl)-1H-1,2,3-triazole-4-carboxamide] the EC50 was 75 nM.
Work on Cc1ccc(-n2cc(C(=O)NCc3nnc(-c4cccnc4)s3)nn2)c(C)n1 [Example 264, 1-(2,6-dimethylpyridin-3-yl)-N-((5-(pyridin-3-yl)-1,3,4-thiadiazol-2-yl)methyl)-1H-1,2,3-triazole-4-carboxamide] yielded an EC50 of 480 nM.
Compound O=C(NCc1nnc(-c2ccccc2)s1)c1cn(C2CCCOC2)nn1 (stereo not drawn) [Example 177, N-((5-phenyl-1,3,4-thiadiazol-2-yl)methyl)-1-(tetrahydro-2H-pyran-3-yl)-1H-1,2,3-triazole-4-carboxamide] has an EC50 of 114 nM.
O=C(NCc1nnc(-c2ccccc2)s1)c1cn(C2CC(CO)(CO)C2)nn1 [Example 175, 1-(3,3-bis(hydroxymethyl)cyclobutyl)-N-((5-phenyl-1,3,4-thiadiazol-2-yl)methyl)-1H-1,2,3-triazole-4-carboxamide] showed an EC50 of 80 nM.
O=C(NCc1nnc(-c2ccncc2)s1)c1cn(CC(F)F)nn1 [Example 347, 1-(2,2-difluoroethyl)-N-((5-(pyridin-4-yl)-1,3,4-thiadiazol-2-yl)methyl)-1H-1,2,3-triazole-4-carboxamide] was tested, and the EC50 was 7 nM.
C[C@@H](O)[C@H](CO)n1cc(C(=O)NCc2nnc(-c3ccccc3)s2)nn1 [Example 187, 1-((2S,3R)-1,3-dihydroxybutan-2-yl)-N-((5-phenyl-1,3,4-thiadiazol-2-yl)methyl)-1H-1,2,3-triazole-4-carboxamide] gave an EC50 of 196 nM.
O=C(NCc1nnc(-c2ccccc2)s1)c1cn([C@@H]2C[C@H]2CO)nn1 (single isomer, unassigned) [Example 142, Trans-1-(2-(hydroxymethyl)cyclopropyl)-N-((5-phenyl-1,3,4-thiadiazol-2-yl)methyl)-1H-1,2,3-triazole-4-carboxamide] showed an EC50 of 33 nM.
Cc1nc(O)ccc1-n1cc(C(=O)NCc2nnc(-c3ccccc3)s2)nn1 [Example 230, 1-(6-hydroxy-2-methylpyridin-3-yl)-N-((5-phenyl-1,3,4-thiadiazol-2-yl)methyl)-1H-1,2,3-triazole-4-carboxamide] gave an EC50 of 6 nM.
Compound COC1CC(n2cc(C(=O)NCc3nnc(-c4ccccc4)s3)nn2)C1 (stereo not drawn) [Example 174, 1-(3-methoxycyclobutyl)-N-((5-phenyl-1,3,4-thiadiazol-2-yl)methyl)-1H-1,2,3-triazole-4-carboxamide] has an EC50 of 16 nM.
COCC[C@H](C)n1cc(C(=O)NCc2nnc(-c3ccccc3)s2)nn1 [Example 66, (S)-1-(4-methoxybutan-2-yl)-N-((5-phenyl-1,3,4-thiadiazol-2-yl)methyl)-1H-1,2,3-triazole-4-carboxamide] was tested, and the EC50 was 221 nM.
